Test results: patent US20260297060A1, “COMPOUNDS FOR THE DEGRADATION OF MUTANT BRAF” (C4 THERAPEUTICS, INC., priority 2023, published 2026)

Tested on: A375 human melanoma xenografts
Experiment: In vivo therapeutic efficacy in A375 human melanoma xenografts (tumor volume, T/C, TGI), Example 14
Design: species or system human tumor in female BALB/c nude mice
Conditions: for Tumor volume: mean ± SEM; for T/C / TGI: PG-D21
Procedure: Agents were tested in the A375 human melanoma xenografts. Compound 26 and Compound 141 were administered to BALB/c nude mice bearing A375 tumors from PG-DO and dosed via PO twice a day (BID) or third a day (TIP) or dosed P daily (QD) from PG-D. Dabrafenib was administered to BALB/c nude mice bearing A375 tumors from PG-D1 and dosed via P daily (QD). Compound 26 was dosed at 1.5 mg/kg (QD), 2 mg/kg (TID), 3 mg/kg (BID), 6 mg/kg (QD) and 10 mg/kg (BID) for 21 days. Compound 141 was dosed at 0.75 mg/kg (BID), 1 mg/kg (TID), 1.5 mg/kg (BID), 3 mg/kg (QD) and 5 mg/kg (BID) for 21 days. Dabrafenib was dosed at 100 mg/kg for 21 days. This study was non-GLP.
One hundred and thirty-eight female BALB/c nude Mus Musculus mice procured from Shanghai Lingchang Biological Science and Technology Co., LTD between the ages of six to eight weeks and with body weight between eighteen and twenty-two grams were used for the study. A spare mouse was also procured.
The A375 tumor cells were maintained in vitro in DMEM medium supplemented with 10% fetal bovine serum and 1% Penicillin-Streptomycin at 37° C. in an atmosphere of 5% CO2 in air. The tumor cells were routinely sub-cultured twice weekly. The cells growing in an exponential growth phase were harvested and counted for tumor inoculation.
Each mouse was inoculated subcutaneously at the right flank with A375 cells (5×10^6) in 0.2 mL of PBS supplemented with Matrigel (PBS: Matrigel=1:1) for tumor development. Animals were grouped for efficacy study on day 15 after tumor inoculation when the average tumor volume reached 220 mm^3. The test articles administration and the animal numbers in each group are shown in the above experimental Table 75.
At the time of routine monitoring, the animals were checked daily for any effects of tumor growth and treatments on normal behavior such as mobility, food and water consumption (by looking only), body weight gain/loss (body weights were measured twice weekly), eye/hair matting and any other abnormal effect as stated in the protocol. Death and observed clinical signs were recorded on the basis of the numbers of animals within each subset.
Prior to the onset of drug treatment, mice were measured for tumor size in two dimensions using a caliper, and the tumor volume (mm^3) was calculated using formula V=0.5 a×b^2 where a and b are the long and short diameters of the tumor in mm, respectively. Mice were randomized into different treatment groups based on the tumor volume.
The major endpoint was to see if the tumor growth could be delayed or mice could be cured. The tumor size was then used for calculations of T/C value. The T/C value (in percent) is an indication of antitumor effectiveness; T and C are the mean volumes of the treated and control groups, respectively on specified day.
TGI was calculated for each group using the formula: TGI (%)=[1−(Ti−T0)/(Ci−C0)]×100; Ti is the average tumor volume of a treatment group on a given day, T0 is the average tumor volume of the treatment group on the day of treatment start, Ci is the average tumor volume of the vehicle control group on the same day with Ti, and C0 is the average tumor volume of the vehicle group on the day of treatment start.
A one-way ANOVA followed by Dunnett's multiple comparison test was performed to compare tumor volume among vehicle group (Group 1) and treatment groups (Group 2-Group 12). All data were analyzed using GraphPad Prism, ns indicates p>0.05, * indicates p<0.05, ** indicates p<0.01, *** indicates p<0.001 and **** indicates p<0.0001.
Tumor growth inhibition of Compound 26, Compound 141 and dabrafenib in the treatment of female BALB/c nude mice bearing A375 xenografts was calculated based on tumor volume measured on […]. TGI and T/C were calculated respectively and the data are detailed in Table 82.

SMILES: CCN(C)S(=O)(=O)Nc1ccc(F)c(Oc2ccc3ncn(C4CC5(CCN(C6CC7(C6)CN(c6cc8c(cc6F)c(N6CCC(=O)NC6=O)nn8C)C7)CC5)C4)c(=O)c3c2)c1C#N (centres unmarked) [Compound 141, 6-[2-cyano-3-[[ethyl(methyl)sulfamoyl]amino]-6-fluoro-phenoxy]-3-[7-[2-[3-(2,4-dioxohexahydropyrimidin-1-yl)-5-fluoro-1-methyl-indazol-6-yl]-2-azaspiro[3.3]heptan-6-yl]-7-azaspiro[3.5]nonan-2-yl]-4-oxo-quinazoline]
- Tumor volume (0.75 mg/kg p.o. BID x 21 days, day 0): 220 ± 16 mm^3
- Tumor volume (0.75 mg/kg p.o. BID x 21 days, day 4): 279 ± 20 mm^3
- Tumor volume (0.75 mg/kg p.o. BID x 21 days, day 7): 299 ± 25 mm^3
- Tumor volume (0.75 mg/kg p.o. BID x 21 days, day 11): 305 ± 27 mm^3
- Tumor volume (0.75 mg/kg p.o. BID x 21 days, day 14): 333 ± 29 mm^3
- Tumor volume (0.75 mg/kg p.o. BID x 21 days, day 18): 465 ± 48 mm^3
- Tumor volume (0.75 mg/kg p.o. BID x 21 days, day 21): 634 ± 67 mm^3
- Tumor volume (0.75 mg/kg p.o. BID x 21 days, day 25 (dosing-free regrowth)): 1230 ± 98 mm^3
- Tumor volume (0.75 mg/kg p.o. BID x 21 days, day 28 (dosing-free regrowth)): 1536 ± 103 mm^3
- Tumor volume (0.75 mg/kg p.o. BID x 21 days, day 32 (dosing-free regrowth)): 1821 ± 140 mm^3
- Tumor volume (0.75 mg/kg p.o. BID x 21 days, day 35 (dosing-free regrowth)): 2230 ± 178 mm^3
- Tumor volume (0.75 mg/kg p.o. BID x 21 days, day 39 (dosing-free regrowth)): 2413 ± 86 mm^3
- Tumor volume (0.75 mg/kg p.o. BID x 21 days, day 42 (dosing-free regrowth)): 2786 ± 127 mm^3
- Tumor volume (0.75 mg/kg p.o. BID x 21 days, day 46 (dosing-free regrowth)): 3213 ± 101 mm^3
- Tumor Size on PG-D21 (Mean ± SEM) (0.75 mg/kg p.o. BID × 21 days): 634 ± 67 mm^3
- T/C (0.75 mg/kg p.o. BID × 21 days): 33.7%
- TGI (0.75 mg/kg p.o. BID × 21 days): 75.1%
- Tumor volume (1 mg/kg p.o. TID x 21 days, day 0): 220 ± 16 mm^3
- Tumor volume (1 mg/kg p.o. TID x 21 days, day 4): 199 ± 14 mm^3
- Tumor volume (1 mg/kg p.o. TID x 21 days, day 7): 174 ± 12 mm^3
- Tumor volume (1 mg/kg p.o. TID x 21 days, day 11): 131 ± 11 mm^3
- Tumor volume (1 mg/kg p.o. TID x 21 days, day 14): 99 ± 11 mm^3
- Tumor volume (1 mg/kg p.o. TID x 21 days, day 18): 117 ± 18 mm^3
- Tumor volume (1 mg/kg p.o. TID x 21 days, day 21): 138 ± 22 mm^3
- Tumor volume (1 mg/kg p.o. TID x 21 days, day 25 (dosing-free regrowth)): 303 ± 94 mm^3
- Tumor volume (1 mg/kg p.o. TID x 21 days, day 28 (dosing-free regrowth)): 492 ± 132 mm^3
- Tumor volume (1 mg/kg p.o. TID x 21 days, day 32 (dosing-free regrowth)): 718 ± 197 mm^3
- Tumor volume (1 mg/kg p.o. TID x 21 days, day 35 (dosing-free regrowth)): 933 ± 232 mm^3
- Tumor volume (1 mg/kg p.o. TID x 21 days, day 39 (dosing-free regrowth)): 1233 ± 240 mm^3
- Tumor volume (1 mg/kg p.o. TID x 21 days, day 42 (dosing-free regrowth)): 1591 ± 302 mm^3
- Tumor volume (1 mg/kg p.o. TID x 21 days, day 46 (dosing-free regrowth)): 2017 ± 443 mm^3
- Tumor volume (1 mg/kg p.o. TID x 21 days, day 49 (dosing-free regrowth)): 2117 ± 505 mm^3
- Tumor volume (1 mg/kg p.o. TID x 21 days, day 53 (dosing-free regrowth)): 2166 ± 495 mm^3
- Tumor volume (1 mg/kg p.o. TID x 21 days, day 56 (dosing-free regrowth)): 2162 ± 633 mm^3
- Tumor Size on PG-D21 (Mean ± SEM) (1 mg/kg p.o. TID × 21 days): 138 ± 22 mm^3
- T/C (1 mg/kg p.o. TID × 21 days): 7.3%
- TGI (1 mg/kg p.o. TID × 21 days): 104.9%
- Tumor volume (1.5 mg/kg p.o. BID x 21 days, day 0): 220 ± 15 mm^3
- Tumor volume (1.5 mg/kg p.o. BID x 21 days, day 4): 245 ± 18 mm^3
- Tumor volume (1.5 mg/kg p.o. BID x 21 days, day 7): 213 ± 17 mm^3
- Tumor volume (1.5 mg/kg p.o. BID x 21 days, day 11): 180 ± 13 mm^3
- Tumor volume (1.5 mg/kg p.o. BID x 21 days, day 14): 159 ± 13 mm^3
- Tumor volume (1.5 mg/kg p.o. BID x 21 days, day 18): 166 ± 14 mm^3
- Tumor volume (1.5 mg/kg p.o. BID x 21 days, day 21): 208 ± 21 mm^3
- Tumor volume (1.5 mg/kg p.o. BID x 21 days, day 25 (dosing-free regrowth)): 476 ± 63 mm^3
- Tumor volume (1.5 mg/kg p.o. BID x 21 days, day 28 (dosing-free regrowth)): 773 ± 76 mm^3
- Tumor volume (1.5 mg/kg p.o. BID x 21 days, day 32 (dosing-free regrowth)): 946 ± 93 mm^3
